Assay results reported in patent publication US4436662A, “Pyrrolo[3,4-d][2]benzazepinones” (Hoffmann-La Roche Inc., priority 1983, dated 1984).
Where two headings read alike, the source gives them in different places.

Experiments:
[1] = molecular target: 3H-Diazepam binding, rat brain cortical fragments; experiment: 3H-Diazepam Binding Assay; conditions: read-out: IC50 (nM), concentration required to inhibit binding by 50%, Tris buffer, assayed in triplicate
Method: Brief-Description: Rat brain cortical fragments are prepared and the binding procedures performed as described by Mohler and Okada (Life Sciences, 20, 2101, 1977) except that Tris buffer is substituted for Krebs buffer. Drugs are assayed in triplicate.
Measurements Made: Radioactivity is measured by liquid scintillation counting.

[2] = system: convulsions (metrazol iv); experiment: Intravenous Antimetrazol Test; type: in vivo, Male CF-1 mice; conditions: Mus musculus, po, 1 h
Method: Intravenous Antimetrazol Test
Brief Description: Male CF-1 mice, 45-54 days old, housed in facilities for one week and food-deprived for about 24 hours, are used in this test. The test compound, dispersed in 5% acacia, is administered orally to three mice at 1/10 the dose at which lethality occurred in the TSP testing. One hour later, metrazol is administered intravenously at 70 mg/kg (convulsant dose 100 mg/kg) and animals are observed 30 seconds for protection against convulsions. If the compound is active orally, 3 animals are used per dose level.
Measurements Made: The number of animals protected from convulsions.
Calculations: If the drug is active and three mice are used per dose level, the approximate ED50 is calculated by the method of Miller and Tainter (Proc. Soc. Exp. Biol. Med. 57:261, 1944). If six or more mice are used per dose level, the ED50 values and 95% fiducial limits are calculated using a computer program based on the method of D. J. Finney ("Probit Analysis", Cambridge University Press, Cambridge, England, 1971).

[3] = LD50 (po) acute lethality; design: species or system mice; conditions: mouse, in vivo
[4] = 1 hour before metrazol 70 mg/kg iv, 50% of animals protected from convulsive seizures, test compounds, read-out: ED50
[5] = mice, printed in binding results table
[6] = printed in antimetrazol results table
[7] = standard drugs, read-out: ED50 (95% Fiducial Limits)

Compound	IC50 [1] [nM]	ED50 [2, 4] [mg/kg]	LD50 [3, 5] [mg/kg]	LD50 [3, 6] [mg/kg]	ED50 [2, 7] [mg/kg]
CC1NC(=O)C2=C1c1ccc(Cl)cc1C(c1ccccc1Cl)=NC2 (centres unmarked) [8-Chloro-6-(2-chlorophenyl)-1,4-dihydro-1-methylpyrrolo[3,4-d][2]benzazepin-3(2H)-one]	1	0.08	> 1000	> 1000	
CN1CC2=C(CN=C(c3ccccc3Cl)c3cc(Cl)ccc32)C1=O [8-chloro-6-(2-chlorophenyl)-1,4-dihydro-2-methylpyrrolo[3,4-d][2]benzazepin-3(2H)-one]		0.08	800	800	
CNC1=Nc2ccc(Cl)cc2C(c2ccccc2)=[N+]([O-])C1 [Chlordiazepoxide]					3.9
CN1C(=O)CN=C(c2ccccc2)c2cc(Cl)ccc21 [Diazepam]					1
CCN(CC)CCN1C(=O)CN=C(c2ccccc2F)c2cc(Cl)ccc21 [Flurazepam, reference compound]	15.6				
CCC1(c2ccccc2)C(=O)NC(=O)NC1=O [Sodium Phenobarbital]					19
